# Test results: US20050181462A1, “Mutant androgen receptor, cancer cells expressing the same, a method of producing them and use thereof” (priority 2002, published 2005)
# Molecular target: T1, W741C type mutant AR (Homo sapiens, UniProt P10275, DUP77-80/W742C)
# T1 construct: expressed in transfected cells; host or cells: Cos-7
# Test: Antagonist screening: inhibition of DHT-induced W741C mutant AR transcription activity (luciferase co-transfection)
# Assay type: cell-based
# Conditions: 40 nM DHT + 10 μM Compound A
# Excerpt: FIG. 4 is a drawing showing the antagonistic action of Compound A on a W741C type mutant AR. […] Mean±standard error, n=16 for the only-DHT addition group and n=4 for the DHT+Compound A addition group.
# T1 sequence (P10275 with tags, fused parts or gaps DUP77-80/W742C): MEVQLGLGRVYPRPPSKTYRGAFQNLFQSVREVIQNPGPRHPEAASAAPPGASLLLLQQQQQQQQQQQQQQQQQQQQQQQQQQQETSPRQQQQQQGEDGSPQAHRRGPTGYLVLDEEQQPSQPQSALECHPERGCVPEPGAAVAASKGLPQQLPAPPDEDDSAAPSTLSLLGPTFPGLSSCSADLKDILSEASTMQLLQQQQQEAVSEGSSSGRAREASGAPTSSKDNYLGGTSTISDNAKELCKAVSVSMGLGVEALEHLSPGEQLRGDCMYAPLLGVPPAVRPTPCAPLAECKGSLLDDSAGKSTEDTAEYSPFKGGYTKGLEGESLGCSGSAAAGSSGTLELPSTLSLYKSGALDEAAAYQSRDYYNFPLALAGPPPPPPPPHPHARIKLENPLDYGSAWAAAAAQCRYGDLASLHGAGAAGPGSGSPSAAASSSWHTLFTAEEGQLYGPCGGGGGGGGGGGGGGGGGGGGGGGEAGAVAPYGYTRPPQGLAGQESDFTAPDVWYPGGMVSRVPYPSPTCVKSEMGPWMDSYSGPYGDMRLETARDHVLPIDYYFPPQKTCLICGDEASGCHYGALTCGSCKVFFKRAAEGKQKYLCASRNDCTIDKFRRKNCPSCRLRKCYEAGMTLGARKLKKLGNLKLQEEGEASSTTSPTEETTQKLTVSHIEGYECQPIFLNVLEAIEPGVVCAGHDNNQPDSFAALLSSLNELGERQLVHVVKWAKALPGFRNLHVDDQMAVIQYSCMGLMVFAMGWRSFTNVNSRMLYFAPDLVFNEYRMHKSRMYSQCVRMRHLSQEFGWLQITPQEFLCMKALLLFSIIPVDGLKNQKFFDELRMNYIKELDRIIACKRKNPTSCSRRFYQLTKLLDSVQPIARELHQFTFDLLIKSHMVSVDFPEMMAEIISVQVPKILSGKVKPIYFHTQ
compound,measurement,value
"CCOC(=O)c1c(C)[nH]c(C)c1-c1ccc([N+](=O)[O-])cc1 [Compound A, ethyl 2,5-dimethyl-4-(4-nitrophenyl)-1H-pyrrole-3-carboxylate]",action on W741C type mutant AR transcription activity of DHT,antagonist action
